Square brackets hold non-standard residues; d marks the D form. Peptide text beside a SMILES is read from it.
Tests used:
[1] = molecular target: T1, recombinant human AEP (rAEP) (Homo sapiens, UniProt Q99538); experiment: Michaelis-Menten / Lineweaver-Burk kinetics of rAEP with synthetic substrate, product measured by SRM-MS; type: biochemical; conditions: 16 hr incubation at 37°C; 10 ng rAEP; substrate 0.02 mM to 1.3 mM; Lineweaver-Burk plot; SRM-MS peak area of product; n = 3
T1 construct: 7xHis (N); purchased R & D Systems, Abingdon, UK; host or cells: NS0 murine myeloma cell line
T1 sequence (Q99538 18-323 limits assumed): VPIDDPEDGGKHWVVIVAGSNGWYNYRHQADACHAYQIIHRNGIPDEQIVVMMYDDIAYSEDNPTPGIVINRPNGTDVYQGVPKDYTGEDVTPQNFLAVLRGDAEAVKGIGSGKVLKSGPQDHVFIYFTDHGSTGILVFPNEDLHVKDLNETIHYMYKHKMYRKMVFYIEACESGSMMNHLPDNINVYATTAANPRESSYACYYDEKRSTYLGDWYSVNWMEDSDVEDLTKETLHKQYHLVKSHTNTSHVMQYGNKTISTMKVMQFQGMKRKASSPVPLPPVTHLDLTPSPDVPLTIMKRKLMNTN
Method: Figure 3 Development of Assay Conditions to Monitor AEP Activity in Plasma A. The level of hydrolysis of AEP substrate with respect to time. 2.44 ng/μl and 9.1 ng/μl of rAEP were spiked into a background of pH modified plasma (pH 5.8) and assayed by SRM-MS for the product peptide. Error bars shown are +/−SD (n = 3). B-C. Rate of AEP activity assayed with different concentrations of substrate (hpvFAANDVSKvph) ranging from 0.02 mM to 1.3 mM. Area under the curve, drawn from SRM-MS of the product peptide, was used to obtain the rate of reaction for AEP activity as shown in Michaelis-Menten Curve (B). […] D. The linearity and limit-of-detection of the AEP assay was investigated by measuring the amount of hydrolysis by 2.0 pg to 0.25 ng of rAEP spiked into 25 μl of plasma and product measured by SRM-MS of Error bars shown are +/−SEM (n = 3). The assay was repeated three times and a technical variance of 3-28% was calculated.
To optimise substrate concentration in our assay, 10 ng of rAEP was incubated with 0.02 mM to 1.3 mM of synthetic substrate for 1 hr, 4 hr (Supplementary Figure S2) or 16 hr (Figure 3B and 3C) at 37°C. The rate of reaction was determined from the amount of product formed per hour and used for Michaelis-Menten enzyme kinetic analysis (Figure 3B). […]
All samples were analysed on a 6500 Q-TRAP (AB Sciex, Warrington, UK) coupled to a nano Acquity uPLC (Waters Inc, MA, US). […]

[2] = Stability of cleaved substrate in plasma, SRM-MS; type: in vitro ADME; conditions: human plasma 25 μl diluted fivefold in assay buffer pH 5.8, 1 pmole to 1 amole spiked, ACN precipitation, n = 3
Method: Figure 2 Detection of Cleaved Substrate Peptide by Mass Spectrometry A-B. 10 ng of recombinant AEP (rAEP) was incubated with 1 μg (0.65 mM) synthetic substrate peptide (hpvFAANDVSKvph) overnight at 37°C. Samples were dried down by vacuum centrifuge and resuspended in LB. 5 pmole of the substrate was loaded on to the liquid chromatography column and cleaved substrate was analysed by SRM MS (A) followed by an DDA workflow (B). (A) Three SRM transitions (b4-481.25^+, b5-552.29^+, b6-623.33^+) were used to detect the cleaved substrate, sequenced as hpvFAAN (378.2^2+ precursor ion). The target peptide eluted at 32 min during the chromatographic gradient. (B) Product ion scans of precursor 378.2^2+ as analysed by DDA. C. […] Samples were resuspended in LB and analyzed by SRM MS. […]
For an assay to measure enzyme activity it is important that the product is stable for the duration of the assay and is present at a level that can be detected. The limit of detection (LOD) and stability of the product hpvFAAN were analysed by serial dilution down to 1 amole in the presence or absence of plasma using SRM MS analysis. This allowed the LOD to be calculated as 2 amole with a linear response up to 1 pmole without a plasma background (Figure 2C). […]

Row | SMILES | Km [1] | Stability of the product in plasma [2]
1 | CC(C)[C@H](NC(=O)[C@H](CC(=O)O)NC(=O)[C@H](CC(N)=O)NC(=O)[C@H](C)NC(=O)[C@H](C)NC(=O)[C@H](Cc1ccccc1)NC(=O)[C@H](NC(=O)[C@H]1CCCN1C(=O)[C@H](N)Cc1c[nH]cn1)C(C)C)C(=O)N[C@@H](CO)C(=O)N[C@@H](CCCCN)C(=O)N[C@@H](C(=O)N1CCC[C@@H]1C(=O)N[C@H](Cc1c[nH]cn1)C(=O)O)C(C)C [hpvFAANDVSKvph] (H-[dH][dP][dV]FAANDVSK[dV][dP][dH]-OH) | 400 µM | 
2 | CC(C)[C@@H](NC(=O)[C@H]1CCCN1C(=O)[C@H](N)Cc1c[nH]cn1)C(=O)N[C@@H](Cc1ccccc1)C(=O)N[C@@H](C)C(=O)N[C@@H](C)C(=O)N[C@@H](CC(N)=O)C(=O)O [hpvFAAN] (H-[dH][dP][dV]FAAN-OH) |  | stable

— paper PMC5342591, “Development of a selected reaction monitoring mass spectrometry-based assay to detect asparaginyl endopeptidase activity in biological fluids” (Oncotarget, 2016)
